Data as given in patent US20170273961A1, “NOVEL IMINONITRILE DERIVATIVES” (CURADEV PHARMA, PVT. LTD., priority 2014, published 2017).

Target: T1, IDO1 (Mus musculus, UniProt P28776)
T1 construct: LPS-injected mice have been used as models to study IDO1 expression and activity; from tissue; host or cells: whole animal: LPS-injected C57BL/6 mice, with IDO1 induced in a variety of tissues
Assay: Reduction of LPS induced plasma kynurenine levels in C57BL/6 mice
Assay type: in vivo
Conditions: LPS-injected (6 mg/kg i.p.) C57BL/6 mice; test compound given orally 20 h after LPS; plasma KYN by LC/MS/MS at 2 hr post dosing
Excerpt: Inflammatory mediators such as Lipopolysaccharides (LPS) and Interferon-gamma (IFNg) are well-established inducers of IDO1 expression. Intraperitoneal (i.p.) administration of bacterial lipopolysaccharide (LPS) induces peak IDO1 activity in a variety of tissues within one day after LPS administration resulting in the production and release of kynurenine into the bloodstream (Takikawa, O., et al. (1986) J. Biol. Chem. 261:3648-53; Yoshida, H., et al. (1998) Cell 94:739-750). LPS-injected mice have been used as models to study IDO1 expression and activity. Three—eight fed C57 BL/6 mice (age 7-8 weeks, weight: about 20-22 g) were injected intrapritoneally with bacterial lipopolysaccharide (LPS; 26:B6 Sigma) at a concentration of 6 mg/kg. Animals were then housed in normal condition for 20 hours at which time the test compounds were administered orally in formulation containing 30% polyethylene glycol 400 (PEG 400) and 20% propylene glycol (PG) in normal saline (Dosing volume 10 mL/kg). Blood was drawn through retro-orbital bleeds into a tube containing 100 mM EDTA for plasma collection at the following times: just prior to LPS treatment, just prior to test compound dosing (0 hr) and then at 2 hr, 4 hr, 6 hr, 8 hr, 24 hr and 48 hr post-test compound dosing. Plasma KYN and drug levels were determined by LC/MS/MS using an API4000 mass spectrometer (Applied Biosystems) coupled to a Shimadzu Prominence LC system fitted with a C18 column.
The compounds of the invention decrease kynurenine levels. The compounds of the invention trigger a decrease of kynurenine levels at 2 hrs of at least 5%.

T1 sequence (P28776 whole entry): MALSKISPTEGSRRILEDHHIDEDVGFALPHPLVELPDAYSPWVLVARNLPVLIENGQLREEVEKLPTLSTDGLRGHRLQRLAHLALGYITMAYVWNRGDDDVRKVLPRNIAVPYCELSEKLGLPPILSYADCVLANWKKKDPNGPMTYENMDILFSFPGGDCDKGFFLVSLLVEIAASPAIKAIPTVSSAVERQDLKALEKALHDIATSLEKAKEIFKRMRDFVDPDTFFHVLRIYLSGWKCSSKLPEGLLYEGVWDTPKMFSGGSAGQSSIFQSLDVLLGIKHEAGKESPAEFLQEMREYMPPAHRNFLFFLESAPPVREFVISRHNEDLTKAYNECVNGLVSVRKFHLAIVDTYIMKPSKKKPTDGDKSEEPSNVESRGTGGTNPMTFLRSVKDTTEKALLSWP

SMILES	percentage of decrease of kynurenine level at two hours [%]
N#C/C(=N\c1cccc(C(F)(F)F)c1)c1ccnc(-c2ccccc2)c1O [Compound 42, 3-Hydroxy-2-phenyl-N-(3-(trifluoromethyl)phenyl)isonicotinimidoyl nitrile]	32
N#C/C(=N\c1ccc(F)c(C(F)(F)F)c1)c1ccnc(-c2ccncc2)c1O [Compound 40, N-(4-Fluoro-3-(trifluoromethyl)phenyl)-3-hydroxy-[2,4′-bipyridine]-4-carbimidoyl nitrile]	77
N#C/C(=N\c1ccc(F)c(C(F)(F)F)c1)c1ccnc(C#N)c1O [Compound 03, 2-Cyano-N-(4-fluoro-3-(trifluoromethyl)phenyl)-3-hydroxyisonicotinimidoyl nitrile]	25
N#C/C(=N\c1ccc(F)c(Cl)c1)c1ccnc(-c2ccc3c(c2)OCO3)c1O [Compound 17, 2-(Benzo[d][1,3]dioxol-5-yl)-N-(3-chloro-4-fluorophenyl)-3-hydroxyisonicotinimidoyl nitrile]	10
N#C/C(=N\c1ccc(F)c(Cl)c1)c1ccnc(-c2ccccc2)c1O [Compound 13, N-(3-Chloro-4-fluorophenyl)-3-hydroxy-2-phenylisonicotinimidoyl nitrile]	46
N#C/C(=N\c1cccc(Cl)c1)c1ccncc1O [Compound 33, N-(3-Chlorophenyl)-3-hydroxyisonicotinimidoyl nitrile]	80
N#C/C(=N\c1cccc(C(F)(F)F)c1)c1ccnc(-c2ccncc2)c1O [Compound 28, 3-Hydroxy-N-(3-(trifluoromethyl)phenyl)-[2,4′-bipyridine]-4-carbimidoyl nitrile]	70
N#C/C(=N\c1cccc(C(F)(F)F)c1)c1ccncc1O [Compound 34, 3-Hydroxy-N-(3-(trifluoromethyl)phenyl)isonicotinimidoyl nitrile]	67

Continued, values first:

percentage of decrease of kynurenine level at two hours [%]	SMILES
64	Cc1cc(-c2nccc(/C(C#N)=N/c3ccc(F)cc3F)c2O)ccn1 [Compound 27, N-(2,4-Difluorophenyl)-3-hydroxy-2′-methyl-[2,4′-bipyridine]-4-carbimidoyl nitrile]
37	Cc1cc(-c2nccc(/C(C#N)=N/c3ccccc3Cl)c2O)ccn1 [Compound 25, N-(2-Chlorophenyl)-3-hydroxy-2′-methyl-[2,4′-bipyridine]-4-carbimidoyl nitrile]
11	Cc1cc(-c2nc(C)cc(/C(C#N)=N/c3ccc(F)c(Cl)c3)c2O)ccn1 [Compound 26, N-(3-Chloro-4-fluorophenyl)-3-hydroxy-2′,6-dimethyl-[2,4′-bipyridine]-4-carbimidoyl nitrile]
64	CNC(=O)c1cc(-c2nccc(/C(C#N)=N/c3cccc(Cl)c3)c2O)ccn1 [Compound 30, N-(3-Chlorophenyl)-3-hydroxy-2′-(methylcarbamoyl)-[2,4′-bipyridine]-4-carbimidoyl nitrile]
69	N#C/C(=N\c1ccc(F)cc1)c1ccnc(-c2ccnc(F)c2)c1O [Compound 43, 2′-Fluoro-N-(4-fluorophenyl)-3-hydroxy-[2,4′-bipyridine]-4-carbimidoyl nitrile]
79	Cc1cc(-c2nccc(/C(C#N)=N/c3cccc(Cl)c3)c2O)ccn1 [Compound 23, N-(3-Chlorophenyl)-3-hydroxy-2′-methyl-[2,4′-bipyridine]-4-carbimidoyl nitrile]
81	Cc1cc(-c2nccc(/C(C#N)=N/c3ccccc3)c2O)ccn1 [Compound 24, 3-Hydroxy-2′-methyl-N-phenyl-[2,4′-bipyridine]-4-carbimidoyl nitrile]
82	Cc1cc(-c2nccc(/C(C#N)=N/c3ccc(F)cc3)c2O)ccn1 [Compound 11, N-(4-Fluorophenyl)-3-hydroxy-2′-methyl-[2,4′-bipyridine]-4-carbimidoyl nitrile]
